≈ marks a conversion by molar mass, not a printed value.
Key:
[1] = system: T. b. rhodesiense STIB 900; assay: African sleeping sickness in vitro screening model (Alamar Blue); assay type: cell-based, Trypanosoma brucei rhodesiense; settings: for IC50: Trypanosoma brucei
Method: Bloodstream from trypomastigotes of the strains (a) and (c) are maintained in Minimal Essential Medium (MEM) with Earle's salts supplemented according to Baltz, et al., (EMBO J. 4:1273-1277, 1985) with 25 mM N-2-hydroxyethylpiperazine-N′-2-ethane-sulphonic acid (HEPES), 1 g/L additional glucose, 1% MEM non-essential amino acids (100×), 0.2 mM 2-mercaptoethanol, 2 mM sodium pyruvate, 0.1 mM hypoxanthine and 15% heat-inactivated horse serum.
All cultures and assays are conducted at 37° C. under an atmosphere of 5% CO2 in air.
After use the stocks are kept at −20° C. For the assays, the compound is further diluted in serum-free culture medium and finally to the appropriate concentration in complete medium without hypoxanthine.
Assays are performed in 96-well microtiter plates, each well containing 100 μL of culture medium with 8×10^3 bloodstream forms with or without a serial drug dilution. The highest concentration for the test compounds is 90 μg/mL. Seven 3-fold drug dilutions are used, covering a range from 90 μg/mL to 0.123 μg/mL. Each drug is tested in duplicate. Active compounds are tested twice for confirmation. The final result is the mean of the four individual IC50 values. After 72 hrs of incubation, the plates are inspected under an inverted microscope to assure growth of the controls and sterile conditions.
(§1) Ten μL of Alamar Blue (12.5 mg resazurin dissolved in 100 mL distilled water) are now added to each well and the plates are incubated for another 2 hours. Then the plates are read with a Spectramax GEMINI XS microplate fluorometer (Molecular Devices Cooperation, Sunnyvale, Calif., USA) using an excitation wavelength of 536 nm and an emission wave length of 588 nm.
IC50 values are determined using the microplate reader software Softmax Pro (Molecular Devices Cooperation, Sunnyvale, Calif., USA).

[2] = system: Trypanosoma cruzi Tulahuen C2C4 strain; assay: Chagas disease in vitro screening model (beta-galactosidase strain in L-6 cells); assay type: cell-based
Method: Trypanosoma cruzi Tulahuen C2C4 strain, containing the β-galactosidase (Lac Z) gene (Buckner et al., Antimicrob. Agents Chemother 40:2592-2597, 1996) is used for this study.
The infective amastigote and trypomastigote stages are cultivated in L-6 cells (a rat skeletal myoblast cell line) in RPMI 1640 medium supplemented with 2 mM L-glutamine and 10% heat-inactivated fetal bovine serum in 12.5 cm^2 tissue culture flasks. Amastigotes develop intracellularly, differentiate into trypomastigotes, and leave the host cell. These trypomastigotes infect new L-6 cells and are the stages used to initiate an infection in the assay. All cultures and assays are conducted at 37° C. under an atmosphere of 5% CO2 in air.
(§2) After use the stocks are kept at −20° C. For the assays, the compound is further diluted to the appropriate concentration using complete medium.
Assays are performed in sterile 96-well microtiter plates, each well containing 100 μl medium with 2×10^3 L-6 cells. After 24 hours, […] of a trypanosome suspension containing 5×10^3 trypomastigote bloodstream forms from culture are added to the wells. Forty-eight hours later, the medium is removed from the wells and replaced by […] fresh medium, with or without a serial drug dilution. At this point the L-6 cells should be infected with amastigotes and no free trypomastigotes should be in the medium. Seven 3-fold drug dilutions are used, covering a range from 90 μg/mL to 0.123 μg/mL. Each drug is tested in duplicate. Active compounds are tested twice for confirmation. After 96 hours of incubation the plates are inspected under an inverted microscope to assure growth of the controls and sterility.
Then the substrate CPRG/Nonidet (50 μl) is added to all wells. A colour reaction will become visible within 2-6 hours and can be read photometrically at 540 nm. Data are transferred into a graphics program (e.g., EXCEL), sigmoidal inhibition curves determined and IC50 values calculated.

[3] = system: Leishmania donovani strain MHOM/ET1671L82; assay: Leishmaniasis in vitro screening model (axenic amastigotes, Alamar Blue); assay type: cell-based
Method: The Leishmania donovani strain MHOM/ET1671L82 (obtained from Dr. S. Croft, London School of Hygiene and Tropical Medicine) is used. The strain is maintained in the Syrian Golden hamster. Amastigotes are collected from the spleen of an infected hamster. Amastigotes are grown in axenic culture at 37° C. in SM medium (Cunningham I., J. Protozoal. 24:325-329, 1977) at pH 5.4 supplemented with 10% heat-inactivated fetal bovine serum (FBS) under an atmosphere of 5% CO2 in air.
as §2
Assays are performed in 96-well flat-bottom microtiter plates (Costar, Corning Inc.), each well containing 100 μl of culture medium with 105 amastigotes from axenic culture with or without a serial drug dilution. Concentration of amastigotes is determined in a CASY cell analyzing system (Scharfe System, Reutlingen, Germany). Before the amastigotes are counted, the parasite culture is passed twice through a 22-gauge needle to break up clusters of amastigotes.
The highest concentration for the test compounds is 90 μg/mL. Seven 3-fold dilutions are used, covering a range from […]. Each drug is tested in duplicate. Active compounds are tested twice for confirmation. After 72 hours of incubation, the plates are inspected under an inverted microscope to assure growth of the controls and sterile conditions.
as §1, with “then” for “now”, “wave length” for “wavelength”
Data are analyzed using the microplate reader software Softmax Pro (Molecular Devices Cooperation, Sunnyvale, Calif., USA). Decrease of fluorescence (i.e. inhibition) is expressed as percentage of the fluorescence of control cultures and plotted against the drug concentrations. The IC50 value is calculated from the sigmoidal inhibition curve by the software program.

| SMILES | T. b. rhodesiense IC50 [1] | T. cruzi IC50 [2] | L. donovani IC50 [3] | IC50 [1] | IC50 ([2]; Trypanosoma cruzi, TULAHUEN, L6, read-out: T. cruzi IC50) | IC50 ([3]; Leishmania donovani, read-out: L. donovani IC50) |
| --- | --- | --- | --- | --- | --- | --- |
| Cc1cc(Cl)ccc1B(OC(=O)c1ncccc1O)c1ccc(Cl)cc1C [Compound 134] | 1.7 µg/mL | 3.6 µg/mL | 0.12 µg/mL | – | – | – |
| Cc1ccc(B(OC(=O)c2ncccc2C(=O)O)c2ccc(C)c(Cl)c2)cc1Cl [Compound 128] | 8 µg/mL | 1.75 µg/mL | 0.61 µg/mL | – | – | – |
| N#Cc1cccc(B(Oc2cccc3cccnc23)c2cc(F)cc(C(F)(F)F)c2)c1 [Compound 121] | 0.43 µg/mL | 4.95 µg/mL | 0.53 µg/mL | – | – | – |
| N#Cc1ccc(B(Oc2cccc3cccnc23)c2ccc(C#N)cc2)cc1 [Compound 88] | 0.41 µg/mL | 1.385 µg/mL | 0.76 µg/mL | – | – | – |
| N#Cc1cccc(B(Oc2cccc3cccnc23)c2ccc(F)c(F)c2)c1 [Compound 95] | 0.435 µg/mL | 2.95 µg/mL | 0.61 µg/mL | – | – | – |
| Cc1ccc(B(Oc2cccc3cccnc23)c2ccco2)cc1Cl [Compound 103] | 0.38 µg/mL | 4.4 µg/mL | 0.35 µg/mL | – | – | – |
| Fc1ccc(B(Oc2c(Cl)cc(Cl)c3cccnc23)c2ccc(Cl)cc2)cc1 [Compound 92] | 1.1 µg/mL | 2.55 µg/mL | 0.052 µg/mL | – | – | – |
| C=CB(Oc1cccc2cccnc12)c1c(C)noc1C [Compound 118] | 0.265 µg/mL | 3.5 µg/mL | 0.44 µg/mL | – | – | – |
| CSc1cccc(B(Oc2cccc3cccnc23)c2cccc(Cl)c2)c1 [Compound 107] | 0.365 µg/mL | 4.1 µg/mL | 0.42 µg/mL | – | – | – |
| CC1(C)COC(c2cccc(B(Oc3cccc4cccnc34)c3cccc(Cl)c3)c2)=N1 [Compound 18, (3-Chlorophenyl)[3-(4,5-dihydro-4,4-dimethyloxazol-2yl)phenyl]borinic acid quinolin-8-yl ester] | – | – | – | 1.7 µg/mL (≈ 3.86 µM) | – | – |
| C=CB(Oc1cccc2cccnc12)c1ccc(F)nc1 [Compound 101] | 0.3 µg/mL | 3.95 µg/mL | 0.34 µg/mL | – | – | – |
| C=CB(Oc1cccc2cccnc12)c1ccc(OC)nc1 [Compound 100] | 0.305 µg/mL | 3.8 µg/mL | 0.33 µg/mL | – | – | – |
| Fc1ccc(B(Oc2cccc3cccnc23)c2ccc(Cl)cc2)cc1F [Compound 114] | 0.41 µg/mL | 4 µg/mL | 0.71 µg/mL | – | – | – |
| CN(C)Cc1ccc(B(Oc2cccc3cccnc23)c2ccc(Cl)cc2)cc1.O=C(O)/C=C/C(=O)O [Compound 106] | 0.385 µg/mL | 4.25 µg/mL | 0.69 µg/mL | – | – | – |
| Cc1ccc(B(OC(=O)c2ncccc2N)c2ccc(C)c(Cl)c2)cc1Cl [Compound 129] | 4.4 µg/mL | 0.855 µg/mL | 1.6 µg/mL | – | – | – |
| CN(C)Cc1ccc(B(Oc2cccc3cccnc23)c2ccc(F)c(F)c2)cc1 [Compound 110] | 0.38 µg/mL | 4.7 µg/mL | 0.61 µg/mL | – | – | – |
| Cc1cc(Cl)ccc1B(Oc1cccc2cccnc12)c1ccc(Cl)cc1C [Compound 109] | 0.405 µg/mL | 4.35 µg/mL | 0.75 µg/mL | – | – | – |
| Clc1ccc(B(Oc2c(I)cc(Cl)c3cccnc23)c2ccc(Cl)cc2)cc1 [Compound 90] | 1.4 µg/mL | 3.25 µg/mL | 0.15 µg/mL | – | – | – |
| C=CB(Oc1cccc2cccnc12)c1ccc(CN(C)C)cc1 [Compound 119] | 0.51 µg/mL | 3.8 µg/mL | 0.36 µg/mL | – | – | – |
| C=CB(Oc1cccc2cccnc12)c1ccco1 [Compound 117] | 0.295 µg/mL | 3.65 µg/mL | 0.63 µg/mL | – | – | – |
| CC1CCN(S(=O)(=O)c2ccc(B(Oc3cccc4cccnc34)c3ccc(Cl)cc3)cc2)CC1 [Compound 111] | 0.552 µg/mL | 4.15 µg/mL | 0.74 µg/mL | – | – | – |
| CN(C)CCOc1ccc(B(Oc2cccc3cccnc23)c2ccc(Cl)cc2)cc1 [Compound 104] | 1.24 µg/mL | 4.3 µg/mL | 0.71 µg/mL | – | – | – |
| Cc1cc(C)c2cccnc2c1OB(c1ccc(F)cc1)c1ccc(Cl)cc1 [Compound 91] | 0.36 µg/mL | 4.3 µg/mL | 0.94 µg/mL | – | – | – |
| CN(C)Cc1ccc(B(Oc2cccc3cccnc23)c2cccc(C#N)c2)cc1.O=C(O)/C=C/C(=O)O [Compound 112] | 0.44 µg/mL | 4.2 µg/mL | 0.98 µg/mL | – | – | – |
| Fc1cccc(B(Oc2cccc3cccnc23)c2ccc(Cl)c(Cl)c2)c1 [Compound 46, (3,4-Dichlorophenyl)(3-fluorophenyl)borinic acid quinolin-8-yl ester] | – | – | – | 0.51 µg/mL (≈ 1.29 µM) | 0.84 µg/mL (≈ 2.12 µM) | 0.44 µg/mL (≈ 1.11 µM) |
| N#Cc1cccc(B(OC(=O)c2ncccc2O)c2cccnc2)c1 [Compound 133] | 0.86 µg/mL | 10.4 µg/mL | 2.2 µg/mL | – | – | – |
| CN(C)Cc1ccc(B(Oc2cccc3cccnc23)c2ccc(Cl)cc2)cc1.Cl [Compound 105] | 0.41 µg/mL | 4.2 µg/mL | 0.72 µg/mL | – | – | – |
| Cc1ccc(B(OC(=O)c2ncccc2O)c2ccc(C)c(Cl)c2)cc1Cl [Compound 127, Bis(3-Chloro-4-methylphenyl)borinic acid 3-hydroxypicolinate ester] | 2.5 µg/mL | 6.3 µg/mL | 0.36 µg/mL | – | – | – |
| O=C(OB(c1ccc(Cl)cc1)c1ccc(Cl)cc1)c1cccc(O)n1 [Compound 132] | 45.7 µg/mL | 23.4 µg/mL | 14.1 µg/mL | – | – | – |

— patent US20060014723A1, “Anti-parasitic uses of borinic acid complexes” (priority 2004, published 2006)
